Results reported in patent EP0481522B1, “Novel mercaptoacetylamide derivatives useful as inhibitors of enkephalinase and ace” (MERRELL PHARMACEUTICALS INC., priority 1990, dated 1992).

Legend:
[1] = target: ACE (Homo sapiens, UniProt P12821); assay: ACE inhibition, spectrophotometric enzyme assay; type: biochemical; details: spectrophotometric substrate of Holmquist et al., buffer system of Ryan
Description: The enzymatic activity of ACE is monitored using the spectrophotometric substrate described by Holmquist et al. [Anal.Biochem. 95, 540-548 (1979)] and the buffer system described by Ryan [Methods of Enzymatic Analysis, 3rd ed., H. U. Bergmeyer, editor; vol. V, Verlag Chemie, Weinheim, 1983, pp. 20-34].

[2] = target: T1, Enkephalinase (Rattus norvegicus, UniProt P07861); assay: Enkephalinase inhibition, fluorometric enzyme assay; type: biochemical; details: enzyme partially purified from rat kidney; 12 µM dansyl-D-AlaGly(p-nitro)PheGly, 50mM HEPES buffer (pH 7.4), 25°C
T1 construct: The enzyme is extracted from the microvilli fraction by using Triton X-100; from tissue; host or cells: rat kidney, microvilli fraction
T1 sequence (P07861 1-750): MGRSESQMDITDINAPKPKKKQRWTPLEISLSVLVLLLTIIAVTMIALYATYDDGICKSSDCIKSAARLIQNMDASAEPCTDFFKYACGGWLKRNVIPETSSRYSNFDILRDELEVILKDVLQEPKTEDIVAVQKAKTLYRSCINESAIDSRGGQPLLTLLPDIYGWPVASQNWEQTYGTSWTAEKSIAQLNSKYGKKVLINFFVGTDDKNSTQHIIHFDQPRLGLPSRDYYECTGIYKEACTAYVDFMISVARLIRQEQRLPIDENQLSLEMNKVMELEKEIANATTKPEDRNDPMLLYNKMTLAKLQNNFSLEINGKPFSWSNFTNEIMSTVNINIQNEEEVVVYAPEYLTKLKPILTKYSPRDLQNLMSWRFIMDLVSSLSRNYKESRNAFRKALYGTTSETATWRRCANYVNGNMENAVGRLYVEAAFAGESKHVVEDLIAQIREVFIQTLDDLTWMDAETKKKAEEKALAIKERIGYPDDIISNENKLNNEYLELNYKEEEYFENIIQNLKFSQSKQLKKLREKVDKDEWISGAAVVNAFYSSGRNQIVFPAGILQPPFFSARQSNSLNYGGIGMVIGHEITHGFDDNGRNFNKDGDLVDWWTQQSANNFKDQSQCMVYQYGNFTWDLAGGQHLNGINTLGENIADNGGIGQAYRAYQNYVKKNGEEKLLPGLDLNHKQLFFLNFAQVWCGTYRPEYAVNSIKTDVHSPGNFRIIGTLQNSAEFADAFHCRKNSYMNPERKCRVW
Description: Enkephalinase is partially purified from rat kidney. The enzyme is extracted from the microvilli fraction by using Triton X-100 according to the method of Malfroy and Schwartz [J.Biol.Chem. 259, 14365-14370 (1984)] or by using proteolytic treatment according to the method of Almenoff and Orlowski [Biochem. 22, 590-599 (1983)]. The enzyme is further purified by anion exchange chromatography (Mono QTM column, Pharmacia) using a Pharmacia FPLC system. The enzyme activity may be measured by the fluorometric methods of Florentin et al. [Anal.Biochem. 141, 62-69 (1984)] or of Almenoff and Orlowski [J.Neurochemistry 42, 151-157 (1984)]. […] The substrate (and inhibitor) is added from a concentrated stock soluticn in DMSO (up to 0.1 mL DMSO final volume). The enzyme in a small volume (approximately 0.1 μg of FPLC purified protein) is added to initiate the reaction and the rate of fluorescense increase is recorded continuously using a fluorometer (excitation at 339nm, emission at 562nm).

Chain of ACE (P12821 30-1306, species assumed): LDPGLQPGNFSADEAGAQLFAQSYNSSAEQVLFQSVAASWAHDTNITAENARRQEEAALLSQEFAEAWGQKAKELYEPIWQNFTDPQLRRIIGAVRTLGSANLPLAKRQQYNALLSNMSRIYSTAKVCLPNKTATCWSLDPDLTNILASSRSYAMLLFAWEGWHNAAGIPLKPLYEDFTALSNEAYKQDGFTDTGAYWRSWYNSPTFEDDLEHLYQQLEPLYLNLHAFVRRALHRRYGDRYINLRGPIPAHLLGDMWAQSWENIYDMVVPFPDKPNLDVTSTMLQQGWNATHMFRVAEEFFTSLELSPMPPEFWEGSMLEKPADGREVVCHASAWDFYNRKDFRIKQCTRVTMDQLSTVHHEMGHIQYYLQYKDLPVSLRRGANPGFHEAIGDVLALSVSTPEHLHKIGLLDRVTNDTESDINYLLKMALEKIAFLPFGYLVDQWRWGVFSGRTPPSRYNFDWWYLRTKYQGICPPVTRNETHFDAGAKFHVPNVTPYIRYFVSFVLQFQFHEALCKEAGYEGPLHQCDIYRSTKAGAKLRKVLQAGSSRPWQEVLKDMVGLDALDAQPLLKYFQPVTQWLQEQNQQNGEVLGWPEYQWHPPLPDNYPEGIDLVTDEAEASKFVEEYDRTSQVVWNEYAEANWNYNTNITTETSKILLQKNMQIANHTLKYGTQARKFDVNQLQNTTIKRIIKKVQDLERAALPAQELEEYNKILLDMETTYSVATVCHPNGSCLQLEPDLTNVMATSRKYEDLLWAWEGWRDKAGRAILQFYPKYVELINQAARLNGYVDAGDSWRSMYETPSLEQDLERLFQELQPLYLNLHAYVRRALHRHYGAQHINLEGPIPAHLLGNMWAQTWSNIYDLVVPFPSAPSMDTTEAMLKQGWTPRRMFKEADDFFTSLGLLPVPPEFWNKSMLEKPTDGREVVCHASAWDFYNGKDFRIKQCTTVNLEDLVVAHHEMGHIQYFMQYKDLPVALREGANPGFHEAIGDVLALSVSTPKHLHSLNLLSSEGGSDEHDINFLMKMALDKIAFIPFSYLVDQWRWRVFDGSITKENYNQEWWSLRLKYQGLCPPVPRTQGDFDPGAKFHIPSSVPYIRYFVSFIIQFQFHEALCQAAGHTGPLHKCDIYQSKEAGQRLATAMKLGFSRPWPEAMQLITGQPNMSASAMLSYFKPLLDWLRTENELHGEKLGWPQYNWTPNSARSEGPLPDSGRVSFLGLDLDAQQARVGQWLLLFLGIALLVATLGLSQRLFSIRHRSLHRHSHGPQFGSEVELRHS

Question: For `O=C(CS)N[C@H]1Cc2ccccc2[C@H]2CCC[C@@H](C(=O)O)N2C1=O` (relative stereo) [27,855, [4S-[4α, 7α(R*), 12bβ]]-7-[(1-oxo-2-thio-ethyl)amino]-1,2,3,4,6,7,8,12b-octahydro-6-oxo-pyrido[2,1-a][2]benzazepine-4-carboxylic acid], which Ki [1] is on record?
Answer: 5 nM

Question: What about the Ki [2] of the same compound?
Answer: 8 nM

Question: Which Ki [1] does the source give for `CC(=O)S[C@@H](Cc1ccccc1)C(=O)N[C@H]1Cc2ccccc2[C@H]2COC[C@@H](C(=O)O)N2C1=O` (relative stereo) [102,179, [4S-[4α, 7α(R*), 12bβ]]-7-[(1-Oxo-2(S)-acetylthio-3-phenylpropyl)amino]-1,2,3,4,6,7,8,12b-hexahydro-6-oxo-1H-[1,4]oxazino[3,4-a][2]benzazepine-4-carboxylic acid] here?
Answer: < 7 nM

Question: What about the Ki [2] of the same compound?
Answer: < 1 nM

Question: What does the source list for `O=C(N[C@H]1Cc2ccccc2[C@H]2CCC[C@@H](C(=O)O)N2C1=O)C(S)c1ccccc1` (relative stereo) [101,804, [4S-[4α, 7α(R*), 12bβ]]-7-[(1-Oxo-2-thio-2-phenylethyl)amino]-1,2,3,4,6,7,8,12b-octahydro-6-oxo-pyrido[2,1-a][2]benzazepine-4-carboxylic acid]?
Answer: Ki [1]: 2.1 nM; Ki [2]: 1 nM

Question: What does the source list for `O=C(N[C@H]1Cc2ccccc2[C@H]2CCC[C@@H](C(=O)O)N2C1=O)[C@H](S)Cc1ccccc1` (relative stereo) [101,628, [4S-[4α, 7α(R*), 12bβ]]-7-[(1-Oxo-2(R)-thio-3-phenylpropyl)amino]-1,2,3,4,6,7,8,12b-octahydro-6-oxo-pyrido[2,1-a][2]benzazepine-4-carboxylic acid]?
Answer: Ki [1]: 6.7 nM; Ki [2]: < 1 nM

Question: `O=C(N[C@H]1Cc2ccccc2[C@H]2COC[C@@H](C(=O)O)N2C1=O)[C@@H](S)Cc1ccccc1` (relative stereo) [101,519, [4S-[4α, 7α(R*), 12bβ]]-7-[(1-Oxo-2(S)-thio-3-phenylpropyl)amino]-1,2,3,4,6,7,8,12b-hexahydro-6-oxo-1 H-[1,4]-oxazino[3,4-a][2]benzazepine-4-carboxylic acid] was tested. Which Ki [1] did it give?
Answer: < 7 nM

Question: What about the Ki [2] of the same compound?
Answer: < 1 nM

Question: Which results are given for `O=C(N[C@H]1Cc2ccccc2[C@H]2CC[C@@H](C(=O)O)N2C1=O)[C@H](S)Cc1ccccc1` (relative stereo) [100,919, [6α(R*), 11bβ]-6-[(S)-(1-oxo-2(R)-thio-3-phenylpropyl)amino]-1,2,3,5,6,7,11b-heptahydro-5-oxo-pyrrolo[2,1-a][2]benzazepine-3(S)-carboxylic acid]?
Answer: Ki [1]: 1 nM; Ki [2]: < 1 nM

Question: Which Ki [1] does the source give for `O=C(N[C@H]1Cc2ccccc2[C@H]2CCC[C@@H](C(=O)O)N2C1=O)[C@@H](S)Cc1ccccc1` (relative stereo) [100,173, [4S-[4α, 7α(R*), 12bβ]]-7-[(1-oxo-2(S)-thio-3-phenylpropyl)amino]-1,2,3,4,6,7,8,12b-octahydro-6-oxo-pyrido[2,1-a][2]benzazepine-4-carboxylic acid] here?
Answer: 0.74 nM

Question: And the Ki [2]?
Answer: < 1 nM
